Measured values: patent US20140227741A1, “Biological Systems for Production of Highest Quality Proteins” (Mediterranean Institute for Life Sciences, priority 2012, published 2014)

Columns and labels:
[1] = tested on: reactive oxygen species (ROS) level; test: Effect of 1 mM trolox on reactive oxygen species (ROS) level; type: cell-based, E. coli
Excerpt: (§1) The functional defects of proteins, correlating with their oxidative damage (carbonylation), can be suppressed by antioxidants in proportion to the extent of the decrease in protein carbonylation. This is illustrated by the effects of trolox (6-hydroxy-2,5,7,8-tetramethylchroman-2-carboxylic acid) on the reduction of ROS species levels and PC levels as given in Table 2.

[2] = tested on: protein carbonylation (PC) amount; test: Effect of 1 mM trolox on protein carbonylation (PC) amount; type: cell-based, E. coli
Excerpt: as §1
The procedure for the quantification of protein carbonylation by ELISA method is as follows. The steps of protein extraction are as described in Example 1 (steps 1 and 2). Protein […] concentration is determined and adjusted so that the proteins are loaded into ELISA wells at 10 μg/mL. Adsorbed proteins are derivatized by using 12 μg/mL DNPH. Derivatization of adsorbed proteins is followed by detection of derivatized dinitrophenol (DNP)-carbonyl by a rabbit anti-DNP primary antibody (Sigma, D9656) and goat anti-rabbit secondary antibody conjugated to HRP (Jackson ImmunoResearch, 111-035-14). Stocks of antibodies were prepared at ˜1 ug/uL and used at 1:7000 dilutions.

Q: Which ROS reduction ([1]; strain wt) does the source give for `Cc1c(C)c2c(c(C)c1O)CCC(C)(C(=O)O)O2` (stereo not drawn) [trolox, 6-hydroxy-2,5,7,8-tetramethylchroman-2-carboxylic acid] here?
A: The ROS reduction was 0.41.

Q: And the ROS reduction ([1]; strain ΔdnaK)?
A: The ROS reduction was 0.41.

Q: What about the ROS reduction ([1]; strain Δtig) of the same compound?
A: The ROS reduction was 0.45.

Q: What about the PC reduction ([2]; strain wt) of the same compound?
A: The PC reduction was 0.26.

Q: What about the PC reduction ([2]; strain ΔdnaK) of the same compound?
A: The PC reduction was 0.25.

Q: And the PC reduction ([2]; strain Δtig)?
A: Its PC reduction is 0.33.
